Measurements: PubChem BioAssay AID1963968 (Molecular Pharmacology Branch, DTP, NCI, 2024)
Where “and” joins values, the source holds several entries; their conditions need not be identical. Equal entries are not always repeated.

Tested on: 945468-187-T-J3-PDC spheroids with HUVEC/MSC, viability
Experiment: Anticancer human tumor 945468-187-T-J3-PDC patient-derived rectal carcinoma cell line growth inhibition [PI3K]
Conditions: for viability, T/C: stronger effect = lower value
From the text: Combinatorial screen of targeted agents with the PI3K inhibitors inavolisib, alpelisib, duvelisib, and copanlisib in multi-cell type tumor spheroids
A high-throughput screen of multi-cell type tumor spheroids was designed to identify active combinations of targeted small molecules and PI3K pathway inhibitors. Complex spheroids include a stromal component modeled by human endothelial cells (HUVEC) and fibroblasts modeled by human mesenchymal stem cells (MSCs). The concentration ranges selected for each drug and investigational agent were based upon clinically achievable concentrations if the clinical Cmax of the agent was known.
Compounds. The drugs and investigational agents: inavolisib (NSC800729), alpelisib (NSC765974), duvelisib (NSC772469), copanlisib (NSC816437), ipatasertib (NSC767898), afuresertib (NSC778305), talazoparib (NSC767125), sapanisertib (NSC764658), selumetinib (NSC741078), tovorafenib (DAY101, NSC766906), vemurafenib (NSC761431), ravoxertinib (NSC781343), sotorasib (NSC818433), MRTX1133 (NSC 836407), abemaciclib (NSC 768073), palbociclib (NSC758247), venetoclax (NSC 766270), SY5609 (NSC837396), enzalutamide (NSC755605), and darolutamide (NSC825331), were obtained from the National Cancer Institute (NCI) Developmental Therapeutics Program Chemical Repository. The FDA-approved anticancer drug set is available from the NCI Developmental Therapeutics Program. […] The stock solutions were prepared in dimethyl sulfoxide (DMSO, Sigma-Aldrich, St. Louis, MO, cat. D2650) at 800-fold the tested concentration and stored at -70 degrees C prior to their use. All drugs and investigational agents were tested over a range starting from a high concentration at or near the clinical Cmax and decreasing in half-log increments. If the clinical Cmax for an agent had not been determined, the highest concentration tested was 10 microM.
Cell Culture. All cells were maintained in an incubator at 37 degrees C and 5% CO2 with 95% humidity. The PDC lines were cultured according to standard operating procedures established by the NCI PDMR (https://pdmr.cancer.gov/sops/default.htm). All PDCs were thawed and cultured in Matrigel-coated flasks prepared with a working solution of 1X Ham's F-12 nutrient mix, without supplementation (Invitrogen, Waltham, MA, cat. 11765054), 100 U/mL penicillin-streptomycin (Invitrogen, cat. 15140122), and 2.5% Matrigel (Corning Inc., Corning, NY, cat. 354248) for the first three passages. The 354836-022-R-J1-PDC, 475296-252-R-J1-PDC, and 997726-040-R-J2-PDC lines were cultured in 6A media, which includes advanced DMEM/F-12 (Thermo Fisher Scientific, cat. 12634028), 10 mM HEPES (Thermo Fisher Scientific, cat. 15630080), 1X GlutaMAX supplement (Thermo Fisher Scientific, cat. 35050061), 0.1 mg/mL primocin (InvivoGen, San Diego, CA, cat. ant-pm-2), 10% defined fetal bovine serum, heat inactivated (HyClone Laboratories Inc., Logan, UT, cat. SH30070.03HI), 50% L-WRN conditioned media (ATCC, cat. CRL-3276), 1.25 mM N-Acetyl-L-cysteine (Sigma-Aldrich, cat. A9165), 10 mM nicotinamide (Sigma-Aldrich, cat. N0636), 1X B-27 supplement (Thermo Fisher Scientific, cat. 17504044), 1X N-2 supplement (Thermo Fisher Scientific, cat. 17502048), and 10 microM Y-27632 dihydrochloride (Tocris Bioscience, Bristol, United Kingdom, cat. 1254). The 624824-186-R-J2-PDC line was cultured in 6C/Colon 1B media, which includes all 6A media components plus 50 ng/mL human EGF recombinant protein (Thermo Fisher Scientific, cat. PHG0311). […]

[1] = curve of first compound, second compound 0.0316 µM
[2] = curve of first compound, second compound 0.1 µM
[3] = curve of first compound, second compound 0.316 µM
[4] = curve of first compound, second compound 1 µM
[5] = curve of first compound, second compound 3.16 µM
[6] = curve of first compound, second compound 10 µM
[7] = second compound 0.0316 µM, first compound 0.0316 µM
[8] = second compound 0.0316 µM, first compound 0.1 µM
[9] = second compound 0.0316 µM, first compound 0.316 µM
[10] = second compound 0.0316 µM, first compound 1 µM
[11] = second compound 0.0316 µM, first compound 3.16 µM
[12] = second compound 0.0316 µM, first compound 10 µM
[13] = second compound 0.1 µM, first compound 0.0316 µM
[14] = second compound 0.1 µM, first compound 0.1 µM
[15] = second compound 0.1 µM, first compound 0.316 µM
[16] = second compound 0.1 µM, first compound 1 µM
[17] = second compound 0.1 µM, first compound 3.16 µM
[18] = second compound 0.1 µM, first compound 10 µM
[19] = second compound 0.316 µM, first compound 0.0316 µM
[20] = second compound 0.316 µM, first compound 0.1 µM
[21] = second compound 0.316 µM, first compound 0.316 µM
[22] = second compound 0.316 µM, first compound 1 µM
[23] = second compound 0.316 µM, first compound 3.16 µM
[24] = second compound 0.316 µM, first compound 10 µM
[25] = second compound 1 µM, first compound 0.0316 µM
[26] = second compound 1 µM, first compound 0.1 µM
[27] = second compound 1 µM, first compound 0.316 µM
[28] = second compound 1 µM, first compound 1 µM
[29] = second compound 1 µM, first compound 3.16 µM
[30] = second compound 1 µM, first compound 10 µM
[31] = second compound 3.16 µM, first compound 0.0316 µM
[32] = second compound 3.16 µM, first compound 0.1 µM
[33] = second compound 3.16 µM, first compound 0.316 µM
[34] = second compound 3.16 µM, first compound 1 µM
[35] = second compound 3.16 µM, first compound 3.16 µM
[36] = second compound 3.16 µM, first compound 10 µM
[37] = second compound 10 µM, first compound 0.0316 µM
[38] = second compound 10 µM, first compound 0.1 µM
[39] = second compound 10 µM, first compound 0.316 µM
[40] = second compound 10 µM, first compound 1 µM
[41] = second compound 10 µM, first compound 3.16 µM
[42] = second compound 10 µM, first compound 10 µM
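Also: spheroids exposed to agents for 7 days before viability read.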
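For viability, T/C in this document: 100% = DMSO vehicle control viability.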

C#Cc1c(F)ccc2cc(O)cc(-c3ncc4c(N5CC6CCC(C5)N6)nc(OCC56CCCN5CC(F)C6)nc4c3F)c12 (stereo not drawn) + CC(Nc1ncnc2nc[nH]c12)c1cc2cccc(Cl)c2c(=O)n1-c1ccccc1
IC50 [1]: > 10 µM | IC50 [2]: > 10 µM | IC50 [3]: > 10 µM | IC50 [4]: > 10 µM | IC50 [5]: > 10 µM | IC50 [6]: > 10 µM | viability, T/C [7]: 91.2% | viability, T/C [8]: 93% | viability, T/C [9]: 103% | viability, T/C [10]: 110% | viability, T/C [11]: 113% | viability, T/C [12]: 101% | viability, T/C [13]: 101% | viability, T/C [14]: 105% | viability, T/C [15]: 99.8% | viability, T/C [16]: 103% | viability, T/C [17]: 115% | viability, T/C [18]: 101% | viability, T/C [19]: 100% | viability, T/C [20]: 97.4% | viability, T/C [21]: 103% | viability, T/C [22]: 107% | viability, T/C [23]: 117% | viability, T/C [24]: 104% | viability, T/C [25]: 100% | viability, T/C [26]: 95.2% | viability, T/C [27]: 96.8% | viability, T/C [28]: 111% | viability, T/C [29]: 111% | viability, T/C [30]: 97.9% | viability, T/C [31]: 102% | viability, T/C [32]: 105% | viability, T/C [33]: 106% | viability, T/C [34]: 99.8% | viability, T/C [35]: 110% | viability, T/C [36]: 101% | viability, T/C [37]: 100% | viability, T/C [38]: 99.5% | viability, T/C [39]: 111% | viability, T/C [40]: 126% | viability, T/C [41]: 121% | viability, T/C [42]: 92.5%

CC(C)NCC(C(=O)N1CCN(c2ncnc3c2C(C)CC3O)CC1)c1ccc(Cl)cc1 (stereo not drawn) + Cc1nc(NC(=O)N2CCCC2C(N)=O)sc1-c1ccnc(C(C)(C)C(F)(F)F)c1
IC50 [1]: > 10 µM | IC50 [2]: > 10 µM | IC50 [3]: 5.36 µM | IC50 [4]: 2.9 µM | IC50 [5]: 1.71 µM | IC50 [6]: 0.303 µM | viability, T/C [7]: 109% | viability, T/C [8]: 116% | viability, T/C [9]: 84.4% | viability, T/C [10]: 94.1% | viability, T/C [11]: 76.9% | viability, T/C [12]: 55% | viability, T/C [13]: 103% | viability, T/C [14]: 101% | viability, T/C [15]: 93.3% | viability, T/C [16]: 91.8% | viability, T/C [17]: 80.6% | viability, T/C [18]: 54.6% | viability, T/C [19]: 114% | viability, T/C [20]: 104% | viability, T/C [21]: 99.4% | viability, T/C [22]: 88.3% | viability, T/C [23]: 60% | viability, T/C [24]: 36.4% | viability, T/C [25]: 99.6% | viability, T/C [26]: 104% | viability, T/C [27]: 91.9% | viability, T/C [28]: 80.7% | viability, T/C [29]: 46.5% | viability, T/C [30]: 32.6% | viability, T/C [31]: 92.6% | viability, T/C [32]: 87.8% | viability, T/C [33]: 82.1% | viability, T/C [34]: 59.3% | viability, T/C [35]: 38.9% | viability, T/C [36]: 27.1% | viability, T/C [37]: 68.9% | viability, T/C [38]: 54.6% | viability, T/C [39]: 51% | viability, T/C [40]: 45% | viability, T/C [41]: 36.9% | viability, T/C [42]: 33.2%

C=CC(=O)N1CCN(c2nc(=O)n(-c3c(C)ccnc3C(C)C)c3nc(-c4c(O)cccc4F)c(F)cc23)C(C)C1 (stereo not drawn)
viability, T/C (compound 0.0316 µM): 99.2% and 94% and 95.5% | viability, T/C (compound 0.1 µM): 97.8% and 105% and 93.8% | viability, T/C (compound 0.316 µM): 103% and 94.5% and 98.7% | viability, T/C (compound 1 µM): 85.6% and 92.5% and 98.2% | viability, T/C (compound 3.16 µM): 88.8% and 100% and 113% | viability, T/C (compound 10 µM): 98.1% and 103% and 116% | IC50 (curve of compound): > 10 µM

Cn1ncc(Cl)c1-c1cc(C(=O)NC(CN)Cc2cccc(F)c2)sc1Cl (stereo not drawn)
viability, T/C (compound 0.0316 µM): 100% (2×) and 98.4% and 89.2% | viability, T/C (compound 0.1 µM): 98.1% [middle of 4 runs] | viability, T/C (compound 0.316 µM): 97.4% [middle of 4 runs] | viability, T/C (compound 3.16 µM): 59.7% [middle of 4 runs] | viability, T/C (compound 10 µM): 50.4% [middle of 4 runs]

Cn1nccc1Nc1nccc(-c2ccn(C(CO)c3ccc(Cl)c(F)c3)c(=O)c2)n1 (stereo not drawn) + Cc1nc(NC(=O)N2CCCC2C(N)=O)sc1-c1ccnc(C(C)(C)C(F)(F)F)c1
IC50 [1]: > 10 µM | IC50 [2]: > 10 µM | IC50 [3]: > 10 µM | IC50 [4]: > 10 µM | IC50 [5]: > 10 µM | IC50 [6]: > 10 µM | viability, T/C [7]: 89.1% | viability, T/C [8]: 111% | viability, T/C [9]: 106% | viability, T/C [10]: 119% | viability, T/C [11]: 135% | viability, T/C [12]: 133% | viability, T/C [13]: 107% | viability, T/C [14]: 109% | viability, T/C [15]: 110% | viability, T/C [16]: 116% | viability, T/C [17]: 125% | viability, T/C [18]: 118% | viability, T/C [19]: 106% | viability, T/C [20]: 114% | viability, T/C [21]: 104% | viability, T/C [22]: 117% | viability, T/C [23]: 129% | viability, T/C [24]: 138% | viability, T/C [25]: 113% | viability, T/C [26]: 112% | viability, T/C [27]: 111% | viability, T/C [28]: 119% | viability, T/C [29]: 144% | viability, T/C [30]: 136% | viability, T/C [31]: 104% | viability, T/C [32]: 101% | viability, T/C [33]: 96.6% | viability, T/C [34]: 121% | viability, T/C [35]: 91.2% | viability, T/C [36]: 90.1% | viability, T/C [37]: 59.8% | viability, T/C [38]: 61.7% | viability, T/C [39]: 61% | viability, T/C [40]: 54.8% | viability, T/C [41]: 52.9% | viability, T/C [42]: 52.9%
